For experiment [1], the system named is HSV-2 (G). Nature of the experiment: HSV-2 infection of primary monocyte/macrophage (M/M) cultures. Format: cell-based.
The subject of experiment [2] is HIV-2(ROD). Nature of the experiment: Anti-HIV-2 activity in CD4+ T-lymphocyte CEM cell cultures. The format is cell-based. To be noted: Human immunodeficiency virus 2, CCRF-CEM. The text has this:
Human CD4 ^+ T-lymphocyte CEM cell cultures were inoculated with HIV-1 and HIV-2 and exposed to adefovir, tenofovir, or PMEO-DAPym. […]

Experiment [3] relates to HSV-1 (KOS strain). The experiment can be described thus: Pre-treatment of PHK cell cultures, HSV-1 infection (CPE).
Method: (§2) The HSV-induced cytopathic effect (CPE) was evaluated in HSV-infected HEL and PHK cultures as described [44], [48].
Experiment [4] relates to HSV-2 (G strain). The experiment can be described thus: Pre-treatment of PHK cell cultures, HSV-2 infection (CPE).
Method: as §2
For experiment [5], the system named is PBMC. The experiment can be described thus: Bio-Plex chemokine assay in PBMC cultures. Format: cell-based, human. To be noted: for production of CC-chemokines: even at 500 µg/ml; for MIP-1β induced: 24 h. On the procedure:
(§1) Figure 9 Expression of CC-chemokines, CCR5 and chemokine mRNA expression in PBMC cultures after drug treatment. Panel A: Production of CC-chemokines by PBMC and the effects of adefovir, tenofovir, and PMEO-DAPym on the expression of the CCR5 receptor. Freshly isolated PBMCs from four healthy donors were incubated for 24 h with medium only (NC) or with adefovir, tenofovir, or PMEO-DAPym. We collected the supernatants and measured the concentrations of MIP-1α (▪), MIP-1β (▴), and RANTES (•) using a Bioplex system (Bio-Rad, Hercules, CA). Shown are means ± SEM. The cells were also collected, and the expression of the CCR5 receptor (□) was measured with flow cytometry using the PE-labeled CCR5 (clone 2D7) mAb; it is shown as percentage of control (± SEM) from four independent representative experiments. Panel B: Chemokine mRNA expression upon PMEO-DAPym exposure to PBMC. RT-PCR analysis of MIP-1α, MIP-1β, RANTES, and GAPDH (control) expression in PBMC treated with 100-µg/ml PMEO-DAPym for 4 h. Similar results were obtained with PBMC from three different donors. Results from one representative donor are shown.
Freshly isolated PBMC were cultured in the presence of adefovir, tenofovir, and PMEO-DAPym, and culture supernatants were collected after 24 h. We determined the cytokine production profile using the Bio-Plex 200 system (Bio-Rad, Hercules, CA) and a Bio-Plex Human chemokine assay according to the manufacturer's instructions and as described in detail earlier. The assay kit contains beads conjugated with mAbs specific for interferon-inducible protein-10 (IP-10), macrophage inflammatory protein-1α (MIP-α), and MIP-1β, and regulated on activation normal T-cell expressed and secreted (RANTES). For each chemokine, eight standards ranging from approximately 1.5 pg/ml to 32,000 pg/ml were constructed, and the minimum detectable dose was between 1.5 pg/ml and 8 pg/ml. Standard curves and the concentrations of chemokines within samples were generated with the Bio-Plex Manager 4.1 software.

For experiment [6], the system named is CCR5. Nature of the experiment: Flow cytometry of CCR5 expression on PBMC. Format: cell-based, human. To be noted: for CCR5 decrease / decrease of CCR5 expression on the cell surface: 24 h; for CCR5 expression, % of control: 72 h. As to the method: as §1
Figure 11 Expression of the HIV-1 coreceptor CCR5 on PBMCs after treatment with adefovir, tenofovir, or PMEO-DAPym. We treated PBMC with the drugs for 24 h and collected and analyzed the cells using flow cytometry. Cell surface expression of CD4 and the chemokine receptor CCR5 were measured with the fluorescein isothiocyanate-labeled CD4 specific mAb (clone SK3) and the phycoerythrin-labeled CCR5 (clone 2D7). The percentages of positive cells in each quadrant of the dot plots are given. The data shown are from one representative experiment that was independently repeated at least four times. TEXT PRINTED IN THE PICTURE: adefovir: 54% (500 μg/ml); 7% (500 μg/ml); 6% (500 μg/ml) | tenofovir: 50% (500 μg/ml); 6% (500 μg/ml); 5% (500 μg/ml) | PMEO-DAPym: 54% (500 μg/ml); 1% (500 μg/ml); 2% (500 μg/ml); 55% (100 μg/ml); 1% (100 μg/ml); 2% (100 μg/ml); 54% (20 μg/ml); 3% (20 μg/ml); 3% (20 μg/ml) DOUBTS OF THE COPYIST ABOUT THIS PICTURE: The percentages are quadrant labels in dot plots (axes: CD4 expression, CCR5 expression). No measure is printed beside them. For each plot they are listed in the order upper left, upper right, lower right. / The Control plot (51%, 8%, 6%) is left out because it is not a substance.
PBMC were cultured in the presence of adefovir, tenofovir, and PMEO-DAPym and incubated at 37°C in a humidified, 5% CO2-controlled atmosphere. The expression of cellular activation markers was measured after 3 days of culture. Briefly, after washing the cells with PBS containing 2% FCS, we incubated them with PerCP-conjugated anti-CD4 mAb (clone SK3) in combination with PE-conjugated anti-CD25, anti-CD69, or anti-HLA-DR mAbs for 30 min at room temperature. For aspecific background staining, cells were stained in parallel with Simultest Control IgG γ1/γ2a and PerCP-conjugated mouse IgG1. Finally, the cells were washed with PBS, fixed with 1% formaldehyde solution, and analyzed with a FACSCalibur (BD Biosciences, San Jose, CA); data were acquired with CellQuest software and further analyzed with the FLOWJO software (Tree Star, San Carlos, CA). […], and PBMC were incubated with PerCP-conjugated anti-CD4 mAb (clone SK3) in combination with APC-conjugated anti-CXCR4 mAb (clone 12G5) and PE-conjugated anti-CCR5 (clone 2D7) or anti-CXCR3 (clone 1C6). To evaluate the biological effects of the β-chemokines produced by drug-treated PBMC, freshly isolated PBMC were incubated for 1 h at 37°C with supernatants collected from PBMC cultures treated with compounds for 24 h. Then, cells were incubated with PerCP-conjugated anti-CD4 mAb (clone SK3) in combination with PE-conjugated anti-CCR5 mAb (clone 2D7) for 30 min at room temperature. […]

The mark [7] stands for this setting: HIV-2(ROD), CEM, virus-induced cytopathicity, read-out: EC50.
Setting [8] is: Human alphaherpesvirus 1, read-out: 50% effective concentration, PHK, HSV-1 KOS, +2 h to 72 h (control, drug present whole incubation).
The mark [9] stands for this setting: Human alphaherpesvirus 1, read-out: 50% effective concentration, PHK, HSV-1 KOS, pretreatment −2.5 h to 0 h.
Setting [10] is: Human alphaherpesvirus 1, read-out: 50% effective concentration, PHK, HSV-1 KOS, pretreatment −6 h to 0 h.
The mark [11] stands for this setting: Human alphaherpesvirus 1, read-out: 50% effective concentration, PHK, HSV-1 KOS, pretreatment −18 h to 0 h.
[12] abbreviates: Human alphaherpesvirus 2, read-out: 50% effective concentration, PHK, HSV-2 G, +2 h to 72 h (control, drug present whole incubation).
The mark [13] stands for this setting: Human alphaherpesvirus 2, read-out: 50% effective concentration, PHK, HSV-2 G, pretreatment −2.5 h to 0 h.
The mark [14] stands for this setting: Human alphaherpesvirus 2, read-out: 50% effective concentration, PHK, HSV-2 G, pretreatment −6 h to 0 h.
Where [15] appears, read: Human alphaherpesvirus 2, read-out: 50% effective concentration, PHK, HSV-2 G, pretreatment −18 h to 0 h.

Converted amounts (≈) assume the structure as drawn. Like-named read-outs stand apart in the source and are kept apart here. Bounds are passed on as bounds.

Take `Nc1ncnc2c1ncn2CCOCP(=O)(O)O` [Adefovir, 9-(2-phosphonylmethoxyethyl)adenine]: the “Cytopathicity (CPE) on macrophages 6 days after infection % CPE” value (“Cytopathicity (CPE) … after infection % CPE” below) in experiment [1] (0.0032 µg/ml) is given as 80%; in experiment [1] (0.4 µg/ml) it was 30%; in experiment [1] (2 µg/ml), 0–5%. Also, the EC50 in experiment [2] (setting [7]) turned out to be 1.9 ± 1.1 µg/mL (≈ 6.95 µM); in experiment [3] (setting [8]) it was 5.1 ± 1.7 µg/mL (≈ 18.7 µM); in experiment [3] (setting [9]) it was 30 µg/mL (≈ 110 µM); in experiment [3] (setting [10]), 23.3 µg/mL (≈ 85.3 µM); in experiment [3] (setting [11]), 8.2 ± 1.6 µg/mL (≈ 30 µM); in experiment [4] (setting [12]), 9.2 ± 6 µg/mL (≈ 33.7 µM). Further, the EC50 in experiment [4] (setting [13]) was 20 µg/mL (≈ 73.2 µM); in experiment [4] (setting [14]) it was 11.9 µg/mL (≈ 43.6 µM); in experiment [4] (setting [15]), 13.3 ± 2.6 µg/mL (≈ 48.7 µM). In addition, the “production of CC-chemokines” value in experiment [5] was “Neither adefovir nor tenofovir induced notable production of CC-chemokines”. In experiment [6], the CCR5 decrease result is recorded as “Neither adefovir nor tenofovir induced a marked CCR5 decrease”.

`Nc1cc(OCCOCP(=O)(O)O)nc(N)n1` [PMEO-DAPym, 6-phosphonylmethoxyethoxy-2,4-diaminopyrimidine]: the “Cytopathicity (CPE) … after infection % CPE” value in experiment [1] (0.0032 µg/ml) is given as 85%; in experiment [1] (0.4 µg/ml), 35%; in experiment [1] (2 µg/ml) it was 0–15%. Besides, the EC50 in experiment [2] (setting [7]) was determined as 0.66 ± 0.19 µg/mL (≈ 2.5 µM); in experiment [3] (setting [8]), 2.6 ± 0.8 µg/mL (≈ 9.84 µM); in experiment [3] (setting [9]), 31.6 µg/mL (≈ 120 µM); in experiment [3] (setting [10]), 29.6 µg/mL (≈ 112 µM); in experiment [3] (setting [11]), 7 ± 0.6 µg/mL (≈ 26.5 µM); in experiment [4] (setting [12]) it was 3.5 ± 1.1 µg/mL (≈ 13.2 µM). Further, the EC50 amounted to 31.6 µg/mL (≈ 120 µM) in experiment [4] (setting [13]), 12.6 µg/mL (≈ 47.7 µM) in experiment [4] (setting [14]) and 8.7 ± 1.8 µg/mL (≈ 32.9 µM) in experiment [4] (setting [15]). For the same compound, the “effect on IP-10 levels” value in experiment [5] is “did not affect IP-10 levels”. Also, the MIP-1β induced in experiment [5] (20 µg/ml) was determined as 7.5 ng/mL; in experiment [5] (100 µg/ml), 20 ng/mL; in experiment [5] (500 µg/ml), 27 ng/mL. Further, the results for the “decrease of CCR5 expression on the cell surface” value in experiment [6] (20 µg/ml), in experiment [6] (100 µg/ml) and in experiment [6] (500 µg/ml) were 60%, at least 75% and at least 75%, respectively. In addition, the “CCR5 expression, % of control” value in experiment [6] (20 µg/ml) is given as 60%; in experiment [6] (100 µg/ml), 38%; in experiment [6] (500 µg/ml), 10%.

`C[C@H](Cn1cnc2c(N)ncnc21)OCP(=O)(O)O` [Tenofovir, 9-(2-phosphonylmethoxypropyl)adenine]: the “Cytopathicity (CPE) … after infection % CPE” value is listed as 85% in experiment [1] (0.0032 µg/ml), 40% in experiment [1] (0.4 µg/ml) and 30% in experiment [1] (2 µg/ml). In experiment [2], this compound came in with an EC50 of 0.43 ± 0.41 µg/mL (≈ 1.5 µM). In addition, the “production of CC-chemokines” value in experiment [5] is “Neither adefovir nor tenofovir induced notable production of CC-chemokines”. In addition, the CCR5 decrease result in experiment [6] was “Neither adefovir nor tenofovir induced a marked CCR5 decrease”.

The values are drawn from PMC3723632, “A Multi-targeted Drug Candidate with Dual Anti-HIV and Anti-HSV Activity” (PLoS Pathogens, 2013).
